Laboratory results taken from patent publication US20230312550A1, “N-(2-(4-CYANOTHIAZOLIDIN-3-YL)-2-OXOETHYL)-QUINOLINE-4-CARBOXAMIDES” (AstraZeneca AB, priority 2020, published 2023).
≈ marks a conversion by molar mass, not a printed value.

Assays:
[1] = target: human Fibroblast activation protein alpha (hFAP) (Homo sapiens (Human), UniProt Q12884); test: hFAP inhibition assay (tight binders); assay type: biochemical; details: Ala-Pro-AMC 20 μM, n = 1 or geometric mean n = 2-6; note: hFAP 2.4 pM
Procedure: The plates were read on a PHERAstar® reader with excitation 340 nm and emission 460 nm. Data were analyzed in Genedata Screener®. IC50 values were determined by plotting % inhibition versus log compound concentration and using a one site dose response model.

[2] = Kinetic solubility; details: kinetic from dmso stock
Procedure: Kinetic solubility was measured as described in Comput Aided Mol Des 2015, 29, 795.

[3] = Metabolic stability in human liver microsomes (HLM); details: human
Procedure: Metabolic stability in HLM was measured as described in J Comput Aided Mol Des 2015, 29, 795.

[4] = target: Prolyl endopeptidase, Prolyl Oligopeptidase (hPREP) (Homo sapiens (Human), UniProt P48147); test: hPrep inhibition assay; assay type: biochemical; details: hPREP 0.6 nM, Z-Gly-Pro-amino-methylcoumarin 50 μM; read-out: PREP IC50
Summary of the method: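 Recombinant human PREP at 0.6 nM final with Z-Gly-Pro-AMC substrate at 50 μM final in Tris-HCl pH 7.5, NaCl, Triton X-100, glutathione; 15 min rt preincubation then 20 min rt reaction in dark. AMC fluorescence (ex 340/em 460 nm); IC50 from one-site dose-response fit of % inhibition.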

[5] = target: FAP (Homo sapiens (Human), UniProt Q12884); test: hFAP inhibition assay; assay type: biochemical; details: hFAP […], Ala-Pro-AMC 20 μM; n = 1 or geometric mean n = 2-3
Procedure: 384 low volume black plates (Greiner #784076) were used. 4 μL, 0.48 nM enzyme solution (100 mM Tris HCl, 100 mM NaCl, 0.05% Chaps, pH 7.4) was added to 40 nL compounds (in DMSO) at 10 CR, 3 fold dilution series from 50 μM FAC. Plates were incubated for 15 min at rt in dark. 4 μL, 40 μM substrate solution (100 mM Tris HCl, 100 mM NaCl, 0.05% Chaps, pH 7.4) was added to each well. Plates were centrifuged at 1000 rpm and incubated for 30 min at rt in dark. The plates were read on a PHERAstar® reader with excitation 340 nm and emission 460 nm. Data were analyzed in Genedata Screener®. IC50 values were determined by plotting % inhibition versus log compound concentration and using a one site dose response model.

[6] = target: hFAP (M39-A757) (Homo sapiens (Human), UniProt Q12884); test: hFAP binding assay (surface plasmon resonance); details: SPR, 20° C.; for hFAP Binding assay k(off) / hFAP Binding assay k(on): single cycle kinetics; for Kd: n = 1 or geometric mean n = 2-4
[7] = Metabolic stability in rat hepatocytes (rHep); details: n = 1 or geometric mean of n = 2-3
[8] = Solubility, kinetic solubility, n = 1 or average of n = 2-3
[9] = HLM CLint, n = 1 or average of n = 2-3

Chain of hFAP (M39-A757) (Q12884 39-757): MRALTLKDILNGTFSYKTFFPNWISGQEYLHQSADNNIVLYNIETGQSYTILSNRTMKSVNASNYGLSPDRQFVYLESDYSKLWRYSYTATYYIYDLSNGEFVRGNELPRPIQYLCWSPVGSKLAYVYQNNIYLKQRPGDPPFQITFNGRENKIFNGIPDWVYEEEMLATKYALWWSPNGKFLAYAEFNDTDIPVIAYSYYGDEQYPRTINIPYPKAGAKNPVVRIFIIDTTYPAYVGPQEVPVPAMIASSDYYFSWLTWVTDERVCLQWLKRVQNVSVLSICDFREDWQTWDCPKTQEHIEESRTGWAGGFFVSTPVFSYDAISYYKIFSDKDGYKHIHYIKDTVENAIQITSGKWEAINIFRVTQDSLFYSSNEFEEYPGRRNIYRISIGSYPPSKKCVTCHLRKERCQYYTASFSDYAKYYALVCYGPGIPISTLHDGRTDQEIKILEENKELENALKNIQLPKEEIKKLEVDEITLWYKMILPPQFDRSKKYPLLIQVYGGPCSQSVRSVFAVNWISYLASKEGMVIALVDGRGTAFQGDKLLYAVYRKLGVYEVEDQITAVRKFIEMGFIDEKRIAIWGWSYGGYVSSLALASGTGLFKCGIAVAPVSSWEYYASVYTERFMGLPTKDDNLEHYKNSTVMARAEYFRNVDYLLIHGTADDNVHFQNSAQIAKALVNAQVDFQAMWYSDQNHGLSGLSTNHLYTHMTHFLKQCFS
Chain of human Fibroblast activation protein alpha (hFAP) (Q12884 38-760): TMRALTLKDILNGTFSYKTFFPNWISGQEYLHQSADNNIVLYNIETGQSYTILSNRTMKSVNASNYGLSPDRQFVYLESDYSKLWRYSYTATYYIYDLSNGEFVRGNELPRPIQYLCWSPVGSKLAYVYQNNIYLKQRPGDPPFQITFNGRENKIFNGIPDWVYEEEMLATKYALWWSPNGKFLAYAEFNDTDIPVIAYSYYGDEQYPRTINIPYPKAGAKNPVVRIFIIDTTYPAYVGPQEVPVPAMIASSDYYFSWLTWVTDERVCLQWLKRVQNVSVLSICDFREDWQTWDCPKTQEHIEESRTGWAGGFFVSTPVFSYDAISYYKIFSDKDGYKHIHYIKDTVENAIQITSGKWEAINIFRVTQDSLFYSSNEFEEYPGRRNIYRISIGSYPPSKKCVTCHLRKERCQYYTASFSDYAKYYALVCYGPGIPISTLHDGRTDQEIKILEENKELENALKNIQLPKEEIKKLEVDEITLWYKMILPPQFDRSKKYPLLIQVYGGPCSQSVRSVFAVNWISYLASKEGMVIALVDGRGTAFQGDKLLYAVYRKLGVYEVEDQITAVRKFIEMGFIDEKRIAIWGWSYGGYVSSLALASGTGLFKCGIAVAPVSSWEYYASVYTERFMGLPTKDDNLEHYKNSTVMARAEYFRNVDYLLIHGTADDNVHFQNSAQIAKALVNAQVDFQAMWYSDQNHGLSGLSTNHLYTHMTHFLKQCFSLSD
Chain of FAP (Q12884 38-760): as above
Chain of Prolyl endopeptidase, Prolyl Oligopeptidase (hPREP) (P48147 whole entry): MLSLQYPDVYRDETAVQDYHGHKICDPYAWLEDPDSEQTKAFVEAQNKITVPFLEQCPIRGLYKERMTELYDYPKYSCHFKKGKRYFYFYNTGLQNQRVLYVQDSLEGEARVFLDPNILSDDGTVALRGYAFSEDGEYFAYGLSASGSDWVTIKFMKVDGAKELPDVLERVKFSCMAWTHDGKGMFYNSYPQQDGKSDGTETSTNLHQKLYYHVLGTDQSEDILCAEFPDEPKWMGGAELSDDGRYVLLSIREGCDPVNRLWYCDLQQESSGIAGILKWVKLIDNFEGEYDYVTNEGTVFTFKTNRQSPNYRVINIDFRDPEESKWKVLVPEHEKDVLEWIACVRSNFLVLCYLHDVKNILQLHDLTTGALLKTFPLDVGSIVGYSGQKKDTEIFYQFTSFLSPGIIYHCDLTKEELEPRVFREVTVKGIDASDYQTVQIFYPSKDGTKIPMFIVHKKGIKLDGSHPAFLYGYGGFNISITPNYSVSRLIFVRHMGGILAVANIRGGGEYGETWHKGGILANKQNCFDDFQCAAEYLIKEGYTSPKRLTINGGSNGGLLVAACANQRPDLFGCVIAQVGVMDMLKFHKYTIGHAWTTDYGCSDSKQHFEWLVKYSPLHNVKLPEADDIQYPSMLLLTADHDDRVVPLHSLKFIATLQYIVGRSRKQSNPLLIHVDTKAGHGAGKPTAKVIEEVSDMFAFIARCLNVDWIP

Row | Structure (SMILES) | IC50 [1] [nM] | solubility [2, 8] [µM] | microsomal CLint [3, 9] [µL/min/mg] | IC50 [4] [nM] | IC50 [5] [nM] | hFAP Binding assay k(off) [6] [s⁻¹] | hFAP Binding assay k(on) [6] [M⁻¹ s⁻¹] | Kd [6] [nM] | rHep CLint [7] [μL/min/1E6] | solubility [2] [µM] | microsomal CLint [3] [µL/min/mg]
1 | CC1(C)CCN1c1ccc2nccc(C(=O)NCC(=O)N3CSC[C@H]3C#N)c2c1 [Example 20, (R)—N-(2-(4-Cyanothiazolidin-3-yl)-2-oxoethyl)-6-(2,2-dimethylazetidin-1-yl)quinoline-4-carboxamide] | 0.43 | 900 (≈ 369 µg/mL) | 290 | 430 | 0.74 | 0.00012 | 4200000 | 0.03 | 120 | – | –
2 | CC1(F)CCN(c2ccc3nccc(C(=O)NCC(=O)N4CSC[C@H]4C#N)c3c2)CC1 [Example 34, (R)—N-(2-(4-Cyanothiazolidin-3-yl)-2-oxoethyl)-6-(4-fluoro-4-methyl-piperidin-1-yl)quinoline-4-carboxamide] | 0.22 | 770 (≈ 340 µg/mL) | 38 | 430 | 0.27 | 0.000082 | 2200000 | 0.057 | 33 | – | –
3 | N#C[C@@H]1CSCN1C(=O)CNC(=O)c1ccnc2ccc(N3CCC(C(F)(F)F)CC3)cc12 [Example 39, (R)—N-(2-(4-Cyanothiazolidin-3-yl)-2-oxoethyl)-6-(4-(trifluoromethyl)-piperidin-1-yl)quinoline-4-carboxamide] | 0.1 | 22 (≈ 10.5 µg/mL) | 120 | 500 | 0.28 | 0.00016 | 4900000 | 0.04 | 31 | – | –
4 | N#C[C@@H]1CSCN1C(=O)CNC(=O)c1ccnc2ccc(N3CC(F)(c4ccccc4)C3)cc12 [Example 182, (R)—N-(2-(4-Cyanothiazolidin-3-yl)-2-oxoethyl)-6-(3-fluoro-3-phenyl-azetidin-1-yl)quinoline-4-carboxamide] | 0.19 | 230 (≈ 109 µg/mL) | 100 | 210 | 0.41 | 0.000042 | 250000 | 0.093 | 26 | – | –
5 | N#C[C@@H]1CSCN1C(=O)CNC(=O)c1ccnc2ccc(N3CC4(CCC4)C3)cc12 [Example 17, (R)—N-(2-(4-Cyanothiazolidin-3-yl)-2-oxoethyl)-6-(2-azaspiro[3.3]heptan-2-yl)quinoline-4-carboxamide] | 0.085 | – | – | 160 | 0.22 | 0.00012 | 8300000 | 0.015 | 16 | 250 (≈ 105 µg/mL) | 18
6 | N#C[C@@H]1CSCN1C(=O)CNC(=O)c1ccnc2ccc(N3CCC[C@H]3C(F)(F)F)cc12 [Example 56, N-(2-((R)-4-Cyanothiazolidin-3-yl)-2-oxoethyl)-6-((S)-2-(trifluoromethyl)-pyrrolidin-1-yl)quinoline-4-carboxamide] | 0.19 | 5.9 (≈ 2.73 µg/mL) | > 300 | 220 | 0.44 | 0.00011 | 540000 | 0.14 | 160 | – | –
7 | C[C@@H]1CCCN1c1ccc2nccc(C(=O)NCC(=O)N3CSC[C@H]3C#N)c2c1 [Example 211, N-(2-((R)-4-cyanothiazolidin-3-yl)-2-oxoethyl)-6-((R)-2-methylpyrrolidin-1-yl)quinoline-4-carboxamide] | 0.1 | 110 (≈ 45 µg/mL) | 200 | 110 | 0.2 | 0.0002 | 5900000 | 0.049 | 190 | – | –

Further molecules by falling IC50 [1], results first:

Row | IC50 [1] [nM] | solubility [2, 8] [µM] | microsomal CLint [3, 9] [µL/min/mg] | IC50 [4] [nM] | IC50 [5] [nM] | hFAP Binding assay k(off) [6] [s⁻¹] | hFAP Binding assay k(on) [6] [M⁻¹ s⁻¹] | Kd [6] [nM] | rHep CLint [7] [μL/min/1E6] | Structure (SMILES) | solubility [2] [µM] | microsomal CLint [3] [µL/min/mg]
8 | 0.1 | 130 (≈ 61.3 µg/mL) | 70 | 150 | 0.27 | – | – | 0.045 | 24 | Cc1cccc(C2CN(c3ccc4nccc(C(=O)NCC(=O)N5CSC[C@H]5C#N)c4c3)C2)c1 [Example 186, (R)—N-(2-(4-Cyanothiazolidin-3-yl)-2-oxoethyl)-6-(3-(m-tolyl)azetidin-1-yl)quinoline-4-carboxamide] | – | –
9 | 0.1 | 180 (≈ 79.1 µg/mL) | 45 | 760 | 0.22 | 0.00024 | 9700000 | 0.031 | 14 | N#C[C@@H]1CSCN1C(=O)CNC(=O)c1ccnc2ccc(N3CC(F)(C4CC4)C3)cc12 [Example 31, (R)—N-(2-(4-Cyanothiazolidin-3-yl)-2-oxoethyl)-6-(3-cyclopropyl-3-fluoroazetidin-1-yl)quinoline-4-carboxamide] | – | –
10 | 0.088 | > 1000 | 180 | 590 | 0.37 | 0.000068 | 890000 | 0.082 | 18 | C[C@@H]1COC[C@@H](C)N1c1ccc2nccc(C(=O)NCC(=O)N3CSC[C@H]3C#N)c2c1 [Example 105, N-(2-((R)-4-Cyanothiazolidin-3-yl)-2-oxoethyl)-6-((3R,5R)-3,5-dimethyl-morpholino)quinoline-4-carboxamide] | – | –
11 | 0.085 | 130 (≈ 57.1 µg/mL) | 56 | 610 | 0.28 | 0.00015 | 1300000 | 0.12 | 29 | C[C@@H]1CN(c2ccc3nccc(C(=O)NCC(=O)N4CSC[C@H]4C#N)c3c2)CCCO1 [Example 64, N-(2-((R)-4-Cyanothiazolidin-3-yl)-2-oxoethyl)-6-((R)-2-methyl-1,4-oxazepan-4-yl)quinoline-4-carboxamide] | – | –
12 | 0.06 | 670 (≈ 294 µg/mL) | 47 | 390 | 0.21 | – | – | 0.062 | 26 | C[C@@H]1CCN(c2ccc3nccc(C(=O)NCC(=O)N4CSC[C@H]4C#N)c3c2)CCO1 [Example 61, N-(2-((R)-4-Cyanothiazolidin-3-yl)-2-oxoethyl)-6-((R)-7-methyl-1,4-oxazepan-4-yl)quinoline-4-carboxamide] | – | –
